From PubChem BioAssay (NCI)
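Tested at 5 concentrations; 48 h exposure; 96-well plates; endpoints linearly interpolated, else capped at highest concentration. GI50 = concentration required for 50% inhibition of growth. At the TGI there is no net growth.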

Assays:
Assay in all cases: NCI-60 cell line screen, 48 h
RXF 393 renal = system: RXF 393 renal
UACC-62 melanoma = system: UACC-62 melanoma
MALME-3M melanoma = system: MALME-3M melanoma
SF-268 CNS = system: SF-268 CNS
M14 melanoma = system: M14 melanoma
UO-31 renal = system: UO-31 renal
EKVX NSCLC = system: EKVX NSCLC
KM12 colon = system: KM12 colon
SK-MEL-5 melanoma = system: SK-MEL-5 melanoma
DU-145 prostate = system: DU-145 prostate
MCF7 breast = system: MCF7 breast
HT29 colon = system: HT29 colon
ACHN renal = system: ACHN renal
CAKI-1 renal = system: CAKI-1 renal
NCI-H226 lung = system: NCI-H226 lung
SW-620 colon = system: SW-620 colon
PC-3 prostate = system: PC-3 prostate
RPMI-8226 leukemia = system: RPMI-8226 leukemia
SF-295 CNS = system: SF-295 CNS
HL-60(TB) leukemia = system: HL-60(TB) leukemia
A549 NSCLC = system: A549 NSCLC
MDA-MB-435 = system: MDA-MB-435
SNB-19 CNS = system: SNB-19 CNS
NCI-H23 lung = system: NCI-H23 lung
SK-OV-3 ovarian = system: SK-OV-3 ovarian
HS 578T breast = system: HS 578T breast
SN12C renal = system: SN12C renal
OVCAR-5 ovarian = system: OVCAR-5 ovarian
HCC-2998 colon = system: HCC-2998 colon

In the case of `CCOC(=O)/C(=C\c1ccc2ccccc2c1)P(=O)(OCC)OCC`, the GI50 (RXF 393 renal) is reported as 1.82 µM, the TGI (RXF 393 renal) is reported as 3.46 µM and the GI50 (UACC-62 melanoma) is reported as 2.33 µM. For the same compound, the TGI (UACC-62 melanoma) was 8.53 µM, the GI50 (MALME-3M melanoma) was 2.52 µM and the TGI (MALME-3M melanoma) was 7.95 µM. The GI50 (SF-268 CNS) was 3.28 µM, the TGI (SF-268 CNS) was 14.3 µM and the GI50 (M14 melanoma) was 2.18 µM. For the same compound, the TGI (M14 melanoma) was 5.59 µM, the GI50 (UO-31 renal) was 1.72 µM and the TGI (UO-31 renal) was 4.4 µM. The GI50 (EKVX NSCLC) was 4.28 µM, the TGI (EKVX NSCLC) was 16 µM and the GI50 (KM12 colon) was 3.08 µM. It also gave a TGI (KM12 colon) of 10.9 µM, a GI50 (SK-MEL-5 melanoma) of 2.55 µM and a TGI (SK-MEL-5 melanoma) of 6.5 µM. For the same compound, the GI50 (DU-145 prostate) was 2.63 µM, the TGI (DU-145 prostate) was 9.32 µM and the GI50 (MCF7 breast) was 2.14 µM. The TGI (MCF7 breast) was 7.12 µM, the GI50 (HT29 colon) was 2.8 µM and the TGI (HT29 colon) was 8.18 µM. For the same compound, the GI50 (ACHN renal) was 2.31 µM, the TGI (ACHN renal) was 6.3 µM and the GI50 (CAKI-1 renal) was 3.06 µM. It also gave a TGI (CAKI-1 renal) of 12 µM, a GI50 (NCI-H226 lung) of 2.39 µM and a TGI (NCI-H226 lung) of 5.88 µM. The GI50 (SW-620 colon) was 2.81 µM, the TGI (SW-620 colon) was 10.4 µM and the GI50 (PC-3 prostate) was 2.84 µM. For the same compound, the TGI (PC-3 prostate) was 6.81 µM, the GI50 (RPMI-8226 leukemia) was 2.27 µM and the TGI (RPMI-8226 leukemia) was 6.54 µM. It also gave a GI50 (SF-295 CNS) of 4.76 µM, a TGI (SF-295 CNS) of 16.2 µM and a GI50 (HL-60(TB) leukemia) of 2.15 µM. The TGI (HL-60(TB) leukemia) was 5.16 µM, the GI50 (A549 NSCLC) was 3.08 µM and the TGI (A549 NSCLC) was 11.6 µM. For the same compound, the GI50 (MDA-MB-435) was 2.92 µM, the TGI (MDA-MB-435) was 13.3 µM and the GI50 (SNB-19 CNS) was 4.45 µM. The TGI (SNB-19 CNS) was 18.6 µM, the GI50 (NCI-H23 lung) was 1.95 µM and the TGI (NCI-H23 lung) was 4.78 µM. The GI50 (SK-OV-3 ovarian) was 8.84 µM, the TGI (SK-OV-3 ovarian) was 20.9 µM and the GI50 (HS 578T breast) was 7.17 µM. The TGI (HS 578T breast) was 75.8 µM, the GI50 (SN12C renal) was 2.85 µM and the TGI (SN12C renal) was 8.89 µM. It also gave a GI50 (OVCAR-5 ovarian) of 3.95 µM, a TGI (OVCAR-5 ovarian) of 13.9 µM and a GI50 (HCC-2998 colon) of 1.96 µM. It also gave a TGI (HCC-2998 colon) of 3.43 µM.
